Measurements reported in patent US20200115357A1, “LIVER X RECEPTORS (LXR) MODULATORS” (Phenex-FXR GmbH, priority 2017, published 2020).

Assays:
[1] = molecular target: T1, LXRα ligand-binding domain (LBD) (Homo sapiens, UniProt Q13133); test: LXR Gal4 reporter transient transfection assay (M2H), Gal4α LBD; type: cell-based; conditions: HEK293 cells; for EC50: read-out: M2H Gal4α LBD activity range (EC50)
T1 construct: expressed in transfected cells; host or cells: HEK293
T1 sequence (Q13133 155-447): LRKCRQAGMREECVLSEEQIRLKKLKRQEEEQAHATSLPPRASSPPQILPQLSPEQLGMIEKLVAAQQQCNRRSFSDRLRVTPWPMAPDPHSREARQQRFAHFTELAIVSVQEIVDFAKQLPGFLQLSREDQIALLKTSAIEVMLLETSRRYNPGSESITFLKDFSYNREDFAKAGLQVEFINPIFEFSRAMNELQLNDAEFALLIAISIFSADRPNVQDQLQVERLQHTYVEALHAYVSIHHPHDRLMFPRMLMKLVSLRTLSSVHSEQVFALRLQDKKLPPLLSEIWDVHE
Experimental: (§1) The tested compounds were usually dissolved, tested and stored as 20 mM stock solutions in DMSO. Since sulfonyl acetic acid derivatives tend to decarboxylate under these conditions, these stock solutions were prepared, tested and stored as 20 mM DMSO stock solutions containing 100 mM trifluoroacetic acid (5 equivalents). Sulfonyl acetic acid derivatives are shelf stable as solid at rt for long time as reported by Griesbrecht et al. (Synlett 2010:374) or Faucher et al. (J. Med. Chem. 2004; 47:18).
(§2) LXR Gal4 Reporter Transient Transfection Assays
(§3) LXRα and LXRβ activity status was determined via detection of interaction with coactivator and corepressor proteins in mammalian two-hybrid experiments (M2H). For this, via transient transfection the full length (FL) proteins of LXRα (amino acids 1-447; NP005684; SEQ ID NO:7) or LXRβ-(amino acids 1-461; NP009052; SEQ ID NO:8) or the ligand-binding domains (LBD) of LXRα (amino acids 155-447 SEQ ID NO:3) or LXRβ (amino acids 156-461; SEQ ID NO:4) were expressed from pCMV-AD (Stratagene) as fusions to the transcriptional activation domain of NFkB. As cofactors, domains of either the steroid receptor coactivator 1 (SRC1; amino acids 552-887; SEQ ID NO:5) or of the corepressor NCoR (amino acids 1903-2312 SEQ ID NO:6) were expressed as fusions to the DNA binding domain of the yeast transcription factor GAL4 (from pCMV-BD; Stratagene). Interaction was monitored via activation of a coexpressed Firefly Luciferase Reporter gene under control of a promoter containing repetitive GAL4 response elements (vector pFRLuc; Stratagene). Transfection efficiency was controlled via cotransfection of constitutively active pRL-CMV Renilla reniformis luciferase reporter (Promega). HEK293 cells were grown in minimum essential medium (MEM) with 2 mM L-glutamine and Earle's balanced salt solution supplemented with 8.3% fetal bovine serum, 0.1 mM non-essential amino acids, 1 mM sodium pyruvate, at 37° C. in 5% CO2. 3.5×10^4 cells/well were plated in 96-well cell culture plates in growth medium supplemented with 8.3% fetal bovine serum for 16-20 h to ˜90% confluency. For transfection, medium was taken off and LXR and cofactor expressing plasmids as well as the reporter plasmids are added in 30 μL OPTIMEM/well including polyethylene-imine (PEI) as vehicle. Typical amounts of plasmids transfected/well: pCMV-AD-LXR (5 ng), pCMV-BD-cofactor (5 ng), pFR-Luc (100 ng), pRL-CMV (0.5 ng). Compound stocks were prepared in DMSO, prediluted in MEM to a total volume of 120 μL, and added 4 h after addition of the transfection mixture (final vehicle concentration not exceeding 0.2%). Cells were incubated for additional 16 h, lysed for 10 min in 1× Passive Lysis Buffer (Promega) and Firefly and Renilla luciferase activities were measured sequentially in the same cell extract using buffers containing D-luciferine and coelenterazine, respectively. Measurements of luminescence were done in a BMG-Iuminometer.

[2] = molecular target: T2, LXRβ ligand-binding domain (LBD) (Homo sapiens, UniProt P55055, DUP175-175); test: LXR Gal4 reporter transient transfection assay (M2H), Gal4β LBD; type: cell-based; conditions: HEK293 cells; for EC50: read-out: M2H Gal4β LBD activity range (EC50)
T2 construct: LXRβ (amino acids 156-461); expressed in transfected cells; host or cells: HEK293
T2 sequence (P55055 with tags, fused parts or gaps DUP175-175): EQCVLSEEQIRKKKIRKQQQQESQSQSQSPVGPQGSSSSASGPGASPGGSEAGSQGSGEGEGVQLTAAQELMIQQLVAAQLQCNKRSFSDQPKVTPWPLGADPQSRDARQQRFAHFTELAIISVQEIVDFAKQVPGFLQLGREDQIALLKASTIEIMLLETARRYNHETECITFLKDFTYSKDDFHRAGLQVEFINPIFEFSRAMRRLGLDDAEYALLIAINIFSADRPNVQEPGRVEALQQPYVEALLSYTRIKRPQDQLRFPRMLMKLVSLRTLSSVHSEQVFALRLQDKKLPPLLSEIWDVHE
Experimental: as §1, §2, §3

[3] = molecular target: T3, GST-LXRβ ligand-binding domain (Homo sapiens, UniProt P55055, DUP175-175); test: TR-FRETβ activity assay (LXRβ-LBD / NCoA3 coactivator peptide, prestimulated with 24(S)-25-epoxycholesterol); type: biochemical; parameters: key to behavior in FRET assay: ag=agonist; ia=inverse agonist; conditions: for EC50: 1 μM 24(S)-25-epoxycholesterol as prestimulating agonist, read-out: FRETβ activity range (EC50); for behavior in FRET assay: agonist or inverse agonist
T3 construct: amino acids 156-461; NP009052; made in house; host or cells: E. coli
T3 sequence (P55055 with tags, fused parts or gaps DUP175-175): T2 sequence (P55055 with tags, fused parts or gaps DUP175-175)
Method in brief: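 E. coli-expressed GST-LXRβ LBD (aa 156-461) at 76 nM with biotinylated NCoA3 coactivator peptide (400 nM), in 240 mM KCl, BSA and Triton-X-100. Anti-GST-Tb cryptate/streptavidin-XL665 TR-FRET after 1 h equilibration at 4 °C, excitation 340 nm, emission 615 and 665 nm. Run in triplicate.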

SMILES: Cc1cc(C)c(S(=O)(=O)N(Cc2ccc(-c3cccc(CCC(=O)O)c3)cc2)Cc2ccc(C(F)(F)F)o2)c(C)c1 [Example 25, 3-(4′-(((2,4,6-Trimethyl-N-((5-(trifluoromethyl)furan-2-yl)methyl)phenyl)sulfonamido)methyl)-[1,1′-biphenyl]-3-yl)propanoic acid]
- EC50 [1]: 0.1 to 1 µM
- EC50 [2]: < 0.1 µM
- EC50 [3]: 0.1 to 1 µM
- behavior in FRET assay [3]: ia

SMILES: Cc1cc(C)c(S(=O)(=O)N(Cc2ccc(-c3cc(F)cc(C4(C(=O)O)CC4)c3)cc2)Cc2ccc(C(F)(F)F)o2)c(C)c1 [7/7]
- EC50 [1]: 0.1 to 1 µM
- EC50 [2]: < 0.1 µM
- EC50 [3]: 0.1 to 1 µM
- behavior in FRET assay [3]: ia

SMILES: COc1ccc(-c2ccc(CN(Cc3ccc(C(F)(F)F)o3)S(=O)(=O)c3c(C)cc(C)cc3C)cc2)cc1C(C)(C)C(=O)O [7/9]
- EC50 [1]: 0.1 to 1 µM
- EC50 [2]: < 0.1 µM
- EC50 [3]: 1 to 10 µM
- behavior in FRET assay [3]: ia

SMILES: COC(=O)CS(=O)(=O)c1cccc(-c2ccc(CN(Cc3ccc(C(F)(F)F)o3)S(=O)(=O)c3c(C)cc(C)cc3C)cc2)c1 [Example 4, Methyl 2-((4′-(((2,4,6-trimethyl-N-((5-(trifluoromethyl)furan-2-yl)methyl)phenyl)sulfon-amido)methyl)-[1,1′-biphenyl]-3-yl)sulfonyl)acetate]
- EC50 [1]: 1 to 10 µM
- EC50 [2]: 0.1 to 1 µM
- EC50 [3]: < 0.1 µM
- behavior in FRET assay [3]: ia

SMILES: Cc1cc(C)c(S(=O)(=O)N(Cc2ccc(-c3cccc(OCC(=O)O)c3)cc2)Cc2ccc(C(F)(F)F)o2)c(C)c1 [5/3]
- EC50 [1]: 0.1 to 1 µM
- EC50 [2]: 0.1 to 1 µM
- EC50 [3]: 1 to 10 µM
- behavior in FRET assay [3]: ia

SMILES: Cc1cc(C)c(S(=O)(=O)N(Cc2ccc(-c3cccc(C(=O)O)c3)cc2)Cc2ccc(C(F)(F)F)o2)c(C)c1 [Example C6, 4′-(((2,4,6-Trimethyl-N-((5-(trifluoromethyl)furan-2-yl)methyl)phenyl)sulfonamido)methyl)-[1,1′-biphenyl]-3-carboxylic acid]
- EC50 [1]: 1 to 10 µM
- EC50 [2]: 0.1 to 1 µM
- EC50 [3]: > 10 µM
- behavior in FRET assay [3]: ia

SMILES: Cc1cc(C)c(S(=O)(=O)N(Cc2ccc(C(F)(F)F)o2)CC2CCC(c3cccc(C(C)(C)C(=O)O)c3)CC2)c(C)c1 (stereo not drawn) [Example 19/1]
- M2H Gal4α LBD activity range (EC50) [1]: inactive
- EC50 [2]: 0.1 to 1 µM
- EC50 [3]: 1 to 10 µM
- behavior in FRET assay [3]: ia

SMILES: Cc1cc(C)c(S(=O)(=O)N(Cc2ccc(-c3cccc(C(F)(F)C(=O)O)c3)cc2)Cc2ccc(C(F)(F)F)o2)c(C)c1 [5/4]
- EC50 [1]: 0.1 to 1 µM
- EC50 [2]: 0.1 to 1 µM
- EC50 [3]: 0.1 to 1 µM
- behavior in FRET assay [3]: ia

SMILES: Cc1cc(C)c(S(=O)(=O)N(Cc2ccc(-c3cccc(C(C)C(=O)O)c3)cc2)Cc2ccc(C(F)(F)F)o2)c(C)c1 (stereo not drawn) [7/4]
- EC50 [1]: < 0.1 µM
- EC50 [2]: < 0.1 µM
- EC50 [3]: 0.1 to 1 µM
- behavior in FRET assay [3]: ia

SMILES: Cc1cc(C)c(S(=O)(=O)N(Cc2ccc(-c3cccc(C4(C(=O)O)CC4)c3)cc2)Cc2ccc(C(F)(F)F)o2)c(C)c1 [7/6]
- EC50 [1]: 0.1 to 1 µM
- EC50 [2]: < 0.1 µM
- EC50 [3]: 0.1 to 1 µM
- behavior in FRET assay [3]: ia

SMILES: Cc1cc(C)c(S(=O)(=O)N(Cc2ccc(-c3cccc([S+]([O-])CC(=O)O)c3)cc2)Cc2ccc(C(F)(F)F)o2)c(C)c1 (stereo not drawn) [11/17]
- EC50 [1]: 1 to 10 µM
- EC50 [2]: 1 to 10 µM
- EC50 [3]: 1 to 10 µM
- behavior in FRET assay [3]: ia

SMILES: Cc1cc(C)c(S(=O)(=O)N(Cc2ccc(C(F)(F)F)o2)C(C)c2ccc(-c3cccc(CC(=O)O)c3)cc2)c(C)c1 (stereo not drawn) [Example 2/1]
- M2H Gal4α LBD activity range (EC50) [1]: inactive
- M2H Gal4β LBD activity range (EC50) [2]: inactive
- EC50 [3]: 1 to 10 µM
- behavior in FRET assay [3]: ia

SMILES: COc1cc(-c2ccc3c(c2)C(C)(C)C(=O)OC3)ccc1CN(Cc1ccc(C(F)(F)F)o1)S(=O)(=O)c1c(C)ccc2ccccc12 [Example 22, N-(4-(4,4-Dimethyl-3-oxoisochroman-6-yl)-2-methoxybenzyl)-2-methyl-N-((5-(trifluoro-methyl)furan-2-yl)methyl)naphthalene-1-sulfonamide]
- EC50 [1]: 1 to 10 µM
- EC50 [2]: < 0.1 µM
- EC50 [3]: 1 to 10 µM
- behavior in FRET assay [3]: ia

SMILES: Cc1cc(C)c(S(=O)(=O)N(Cc2ccc(-c3cccc(S(=O)(=O)CCCC(=O)O)c3)cc2)Cc2ccc(C(F)(F)F)o2)c(C)c1 [7/2]
- EC50 [1]: 0.1 to 1 µM
- EC50 [2]: 0.1 to 1 µM
- EC50 [3]: 1 to 10 µM
- behavior in FRET assay [3]: ia

SMILES: Cc1cc(C)c(S(=O)(=O)N(Cc2ccc(-c3ccc(OCC(=O)O)cc3)cc2)Cc2ccc(C(F)(F)F)o2)c(C)c1 [C7/11]
- EC50 [1]: 0.1 to 1 µM
- EC50 [2]: 0.1 to 1 µM
- EC50 [3]: 1 to 10 µM
- behavior in FRET assay [3]: ia

SMILES: Cc1cc(C)c(S(=O)(=O)N(Cc2ccc(N3CCCN(CC(=O)O)C3=O)cc2)Cc2ccc(C(F)(F)F)o2)c(C)c1 [Example 16, 2-(2-Oxo-3-(4-(((2,4,6-trimethyl-N-((5-(trifluoromethyl)furan-2-yl)methyl)phenyl)sulfon-amido)methyl)phenyl)tetrahydropyrimidin-1(2H)-yl)acetic acid]
- M2H Gal4α LBD activity range (EC50) [1]: inactive
- EC50 [2]: 1 to 10 µM
- EC50 [3]: > 10 µM
- behavior in FRET assay [3]: ia

SMILES: Cc1cc(C)c(S(=O)(=O)N(Cc2ccc(N3CCCC(C(C)(C)C(=O)O)C3)cc2)Cc2ccc(C(F)(F)F)o2)c(C)c1 (stereo not drawn) [16/2]
- EC50 [1]: 0.1 to 1 µM
- EC50 [2]: 0.1 to 1 µM
- EC50 [3]: > 10 µM
- behavior in FRET assay [3]: ia

SMILES: Cc1cc(C)c(S(=O)(=O)N(Cc2ccc(-c3cccc(S(=O)(=O)NCC(=O)O)c3)cc2)Cc2ccc(C(F)(F)F)o2)c(C)c1 [Example 25/1]
- EC50 [1]: 1 to 10 µM
- EC50 [2]: 1 to 10 µM
- EC50 [3]: 1 to 10 µM
- behavior in FRET assay [3]: ia

SMILES: Cc1cc(C)c(S(=O)(=O)N(Cc2ccc(-c3cccc(C4(C(=O)O)CCOCC4)c3)cc2)Cc2ccc(C(F)(F)F)o2)c(C)c1 [7/8]
- EC50 [1]: 0.1 to 1 µM
- EC50 [2]: 0.1 to 1 µM
- EC50 [3]: > 10 µM
- behavior in FRET assay [3]: ia

SMILES: CC(=O)NS(=O)(=O)c1cccc(-c2ccc(CN(Cc3ccc(C(F)(F)F)o3)S(=O)(=O)c3c(C)cc(C)cc3C)cc2)c1 [Example 3/1]
- EC50 [1]: 0.1 to 1 µM
- EC50 [2]: < 0.1 µM
- EC50 [3]: > 10 µM
- behavior in FRET assay [3]: ia

SMILES: Cc1cc(C)c(S(=O)(=O)N(Cc2ccc(N3CCCC(CC(=O)O)C3=O)cc2)Cc2ccc(C(F)(F)F)o2)c(C)c1 (stereo not drawn) [Example 16/1]
- EC50 [1]: 1 to 10 µM
- EC50 [2]: 0.1 to 1 µM
- EC50 [3]: > 10 µM
- behavior in FRET assay [3]: ia
